Laboratory results as given in PubChem BioAssay (NCI).
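A five-concentration, 48-hour dose response in 96-well plates underlies each endpoint, interpolated linearly between surrounding concentrations. GI50 = concentration required for 50% inhibition of growth. At the TGI there is no net growth.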

How the values were obtained:
Experiment in all cases: DTP human tumour cell line panel, 48 h
786-0 renal = system: 786-0 renal
HS 578T breast = system: HS 578T breast
K-562 leukemia = system: K-562 leukemia
MALME-3M melanoma = system: MALME-3M melanoma
MOLT-4 leukemia = system: MOLT-4 leukemia
OVCAR-3 ovarian = system: OVCAR-3 ovarian
OVCAR-5 ovarian = system: OVCAR-5 ovarian
RXF 393 renal = system: RXF 393 renal
SN12C renal = system: SN12C renal
UACC-257 melanoma = system: UACC-257 melanoma

| Compound | GI50 (786-0 renal) [nM] | TGI (786-0 renal) [µM] | GI50 (HS 578T breast) [nM] | TGI (HS 578T breast) [µM] | GI50 (K-562 leukemia) [nM] | TGI (K-562 leukemia) [µM] | GI50 (MALME-3M melanoma) [nM] | TGI (MALME-3M melanoma) [µM] | GI50 (MOLT-4 leukemia) [nM] | TGI (MOLT-4 leukemia) [µM] | GI50 (OVCAR-3 ovarian) [nM] | TGI (OVCAR-3 ovarian) [µM] | GI50 (OVCAR-5 ovarian) [nM] | TGI (OVCAR-5 ovarian) [µM] | GI50 (RXF 393 renal) [nM] | TGI (RXF 393 renal) [µM] | GI50 (SN12C renal) [nM] | TGI (SN12C renal) [µM] | GI50 (UACC-257 melanoma) [nM] | TGI (UACC-257 melanoma) [µM] |
| --- | --- | --- | --- | --- | --- | --- | --- | --- | --- | --- | --- | --- | --- | --- | --- | --- | --- | --- | --- | --- |
| O=C1NC(=O)[C@@H](c2c[nH]c3ccccc23)[C@@H]1c1c[nH]c2ccccc12 | > 25000 | > 25 | 24800 | > 25 | > 25000 | > 25 | > 21800 | > 25 | > 25000 | > 25 | > 25000 | > 25 | > 25000 | > 25 | > 25000 | > 25 | > 25000 | > 25 | > 25000 | > 25 |
| CCOC(=O)c1ccc(N(C=O)CCC(=O)CCl)cc1 | 333 | 4.08 | 311 | 2.89 | 35.3 | > 69.3 | 1490 | 3.48 | 43.3 | 3.88 | 399 | 1.35 | 474 | 9.23 | 260 | 4.49 | 217 | 4.27 | 1500 | 8.33 |
| COc1cc(OC)c(F)c(COc2cnc(Nc3cnn(CCO)c3)nc2)c1F | 1750 | > 100 | 350 | 3.43 | 343 | > 100 | 923 | 7.66 | 668 | > 100 | 429 | > 100 | 2080 | > 100 | 188 | 2.44 | 1590 | > 100 | 1450 | > 100 |
| CCCCCCCCCCCC1=NC(C)(C)CN1CC(C)O (stereo not given) | 11800 | 25.9 | 2600 | 17.3 | 1620 | 3.33 | 5640 | 20.4 | 2830 | 8.51 | 3350 | 12.7 | 12300 | 24.8 | 2550 | 6.96 | 7260 | 20.3 | 2810 | 7.49 |
